How the values were obtained:
[1] = equilibrium potential of the redox mediator; type: physicochemical; conditions: vs SCE reference electrode
Excerpt: This is enabled by the use of suitable fat-soluble redox mediators ([2], [3]) capable of permeabilizing the bacterial membrane and entering the cytoplasm, in order to alter the oxidation state of the disulfide bond present in type A thioredoxins, as well as by appropriate light irradiation.

[2] = system: Rhodobacter sphaeroides (ATCC 55304); assay: bacteriochlorophyll synthesized by Rhodobacter sphaeroides under electrochemical control vs aerobic growth (absorption spectra); type: cell-based; conditions: 50 nM safranin, acetone/methanol extract, absorbance normalized to 660 nm
Protocol: A homemade potentiostat was used as an external source of free energy, capable of providing a current of up to 100 mA and keeping the potential constant within the range of −2 V÷+2 V).
The materials of the electrodes used are: • Working electrode: stainless steel grid with 1 mm mesh spacing. • Counter electrode: graphite bars (0.8 cm in diameter, 30 cm long) • Reference electrode: (SCE)
Safranin T, molecular mass equal to 350.85. (Fluka) at a concentration equal to 50 nM, was used as redox mediator in the cell.
The solution inside the fermenter/reactor was kept under mild stirring to facilitate the recirculation of the redox mediator molecules.

- equilibrium potential [1]: about −540 mV
SMILES: Cc1cc2nc3cc(C)c(N)cc3[n+](-c3ccccc3)c2cc1N.[Cl-] [Safranin T, safranin T]
- intensity of bacteriochlorophyll absorption bands compared to the corresponding aerobic population [2]: almost tripled
